Laboratory results taken from ChEMBL document CHEMBL3885861, “Open TG-GATES”.

Species on record: Rattus norvegicus
Experiment: Open TG-GATES - Regimen: Single
Format: toxicity, organism-based, Sprague-Dawley
Parameters: regimen Single, gender Male, age 6 weeks
Conditions: in vivo, po, 20 mg/kg, route gavage, dose level Middle; for APTT / Bas / Eos / Fbg / Hb / Ht / Lym / MCH / MCHC / MCV / Mono / Neu / PT / Plat / RBC / Ret / WBC: tissue Blood; for LIVER: tissue Liver; for A/G / ALP / ALT / AST / BUN / CRE / Ca / Cl / DBIL / GLC / IP / K / LDH / Na / PL / RALB / TBIL / TC / TG / TP / gamma-GTP: tissue Plasma

SMILES: O=[N+]([O-])c1ccc(O)c([N+](=O)[O-])c1 [2,4-DINITROPHENOL]
- TERMINAL_BW (3 h): 203.6 g
- APTT (3 h): 16.6 s
- Bas (3 h): 0%
- Eos (3 h): 1%
- Fbg (3 h): 246.4 mg/dL
- Hb (3 h): 12.6 g/dL
- Ht (3 h): 37.5%
- Lym (3 h): 75%
- MCH (3 h): 22 pg
- MCHC (3 h): 33.5%
- MCV (3 h): 65.6 fL
- Mono (3 h): 11.8%
- Neu (3 h): 12.4%
- PT (3 h): 11.8 s
- Plat (3 h): 115.4 x10_4/uL
- RBC (3 h): 572.2 x10_4/ul
- Ret (3 h): 10.2%
- WBC (3 h): 93.4 x10_2/uL
- LIVER (3 h): 9.5 g
- A/G (3 h): 2.3
- ALP (3 h): 1342.4 IU/L
- ALT (3 h): 37.8 IU/L
- AST (3 h): 62.6 IU/L
- BUN (3 h): 12.8 mg/dL
- CRE (3 h): 0.4 mg/dL
- Ca (3 h): 11.9 mg/dL
- Cl (3 h): 104 meq/L
- DBIL (3 h): 0.012 mg/dL
- GLC (3 h): 218.2 mg/dL
- IP (3 h): 10.9 mg/dL
- K (3 h): 4.2 meq/L
- LDH (3 h): 125.2 IU/L
- Na (3 h): 138.4 meq/L
- PL (3 h): 143 mg/dL
- RALB (3 h): 3.8 g/dL
- TBIL (3 h): 0.036 mg/dL
- TC (3 h): 85.4 mg/dL
- TG (3 h): 68.6 mg/dL
- TP (3 h): 5.5 g/dL
- gamma-GTP (3 h): 0 IU/L
- TERMINAL_BW (6 h): 200.1 g
- APTT (6 h): 16 s
- Bas (6 h): 0%
- Eos (6 h): 1.2%
- Fbg (6 h): 235 mg/dL
- Hb (6 h): 13.1 g/dL
- Ht (6 h): 39.1%
- Lym (6 h): 71.4%
- MCH (6 h): 22 pg
- MCHC (6 h): 33.6%
- MCV (6 h): 65.5 fL
- Mono (6 h): 10.2%
- Neu (6 h): 17.2%
- PT (6 h): 12 s
- Plat (6 h): 124 x10_4/uL
- RBC (6 h): 596.4 x10_4/ul
- Ret (6 h): 8.9%
- WBC (6 h): 111 x10_2/uL
- LIVER (6 h): 8.2 g
- A/G (6 h): 2.6
- ALP (6 h): 1422.2 IU/L
- ALT (6 h): 36.4 IU/L
- AST (6 h): 78.6 IU/L
- BUN (6 h): 12.2 mg/dL
- CRE (6 h): 0.4 mg/dL
- Ca (6 h): 11 mg/dL
- Cl (6 h): 105.8 meq/L
- DBIL (6 h): 0.02 mg/dL
- GLC (6 h): 204.6 mg/dL
- IP (6 h): 10.9 mg/dL
- K (6 h): 4.5 meq/L
- LDH (6 h): 129.2 IU/L
- Na (6 h): 139.2 meq/L
- PL (6 h): 141.2 mg/dL
- RALB (6 h): 3.9 g/dL
- TBIL (6 h): 0.044 mg/dL
- TC (6 h): 85.6 mg/dL
- TG (6 h): 46.4 mg/dL
- TP (6 h): 5.4 g/dL
- gamma-GTP (6 h): 0 IU/L
- TERMINAL_BW (9 h): 203.1 g
- APTT (9 h): 16.2 s
- Bas (9 h): 0%
- Eos (9 h): 0.8%
- Fbg (9 h): 255.5 mg/dL
- Hb (9 h): 12.9 g/dL
- Ht (9 h): 38.4%
- Lym (9 h): 77.2%
- MCH (9 h): 22.1 pg
- MCHC (9 h): 33.8%
- MCV (9 h): 65.4 fL
- Mono (9 h): 4.8%
- Neu (9 h): 17.2%
- PT (9 h): 12 s
- Plat (9 h): 132.8 x10_4/uL
- RBC (9 h): 587.2 x10_4/ul
- Ret (9 h): 10.4%
- WBC (9 h): 104.5 x10_2/uL
- LIVER (9 h): 8.5 g
- A/G (9 h): 2.4
- ALP (9 h): 1370.8 IU/L
- ALT (9 h): 34 IU/L
- AST (9 h): 64.5 IU/L
- BUN (9 h): 10.5 mg/dL
- CRE (9 h): 0.4 mg/dL
- Ca (9 h): 11.3 mg/dL
- Cl (9 h): 104.5 meq/L
- DBIL (9 h): 0.02 mg/dL
- GLC (9 h): 198.5 mg/dL
- IP (9 h): 11.2 mg/dL
- K (9 h): 4.7 meq/L
- LDH (9 h): 158 IU/L
- Na (9 h): 139 meq/L
- PL (9 h): 153.8 mg/dL
- RALB (9 h): 3.9 g/dL
- TBIL (9 h): 0.045 mg/dL
- TC (9 h): 83.5 mg/dL
- TG (9 h): 70.2 mg/dL
- TP (9 h): 5.6 g/dL
- gamma-GTP (9 h): 0 IU/L
- TERMINAL_BW (24 h): 216.8 g
- APTT (24 h): 15.6 s
- Bas (24 h): 0%
- Eos (24 h): 1.2%
- Fbg (24 h): 234.2 mg/dL
- Hb (24 h): 12.9 g/dL
- Ht (24 h): 38.4%
- Lym (24 h): 70.4%
- MCH (24 h): 21.6 pg
- MCHC (24 h): 33.7%
- MCV (24 h): 64.2 fL
- Mono (24 h): 11.6%
- Neu (24 h): 16.8%
- PT (24 h): 11.7 s
- Plat (24 h): 125.6 x10_4/uL
- RBC (24 h): 597.8 x10_4/ul
- Ret (24 h): 9%
- WBC (24 h): 122.2 x10_2/uL
- LIVER (24 h): 11.1 g
- A/G (24 h): 2.4
- ALP (24 h): 1483.4 IU/L
- ALT (24 h): 43.2 IU/L
- AST (24 h): 67.2 IU/L
- BUN (24 h): 16 mg/dL
- CRE (24 h): 0.4 mg/dL
- Ca (24 h): 11.3 mg/dL
- Cl (24 h): 103.2 meq/L
- DBIL (24 h): 0.01 mg/dL
- GLC (24 h): 182.2 mg/dL
- IP (24 h): 7.2 mg/dL
- K (24 h): 4.6 meq/L
- LDH (24 h): 101.4 IU/L
- Na (24 h): 139 meq/L
- PL (24 h): 163.8 mg/dL
- RALB (24 h): 3.9 g/dL
- TBIL (24 h): 0.032 mg/dL
- TC (24 h): 90 mg/dL
- TG (24 h): 131.8 mg/dL
- TP (24 h): 5.5 g/dL
- gamma-GTP (24 h): 0.8 IU/L
